In publication PMC9944328 (Nature Communications, 2023):
Where “and” joins values, the source holds several entries; their conditions need not be identical. Identical values can stand only once.

Molecular target: SSTR2 (Homo sapiens, UniProt P30874)
Test: SSTRs Gi-mediated cAMP inhibition, GloSensor, HEK293, 5 μM forskolin, 15 min room temperature (SSTR2 wild-type);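 on Bottom (best-fit value): normalized to the maximal wild-type response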;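 on Bottom (best-fit): normalized to the maximal wild-type response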;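 on Span (best-fit value): normalized to the maximal wild-type response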;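 on Span (best-fit): normalized to the maximal wild-type response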;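 on Top (best-fit value): normalized to the maximal wild-type response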;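 on Top (best-fit): normalized to the maximal wild-type response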
Format: cell-based
Design: Best-fit Top, cAMP inhibition / Span, cAMP inhibition / Best-fit Bottom / Best-fit Top / Best-fit Span / Bottom / Span (best-fit value), cAMP inhibition / Top (best-fit value), cAMP inhibition: scale not given here
Settings: for Best-fit Top, cAMP inhibition / Span, cAMP inhibition: octreotide
Procedure: The levels of the intracellular 3′, 5′-cyclic AMP (cAMP) were measured by the GloSensor cAMP assay (Promega) as described in the previous studies[28],[41] which has been widely used. The human full-length SSTRs and mutants were cloned into the pcDNA3.1+ vector with a HA signal sequence followed by a Flag tag at the N-terminus. HEK293 cells (ATCC, CRL-1573) were seeded into 6-well microplates at a density of 1.0 × 10^6 cells/well and cultured for 24 h at 37 °C with 5% CO2. Cells were then co-transfected with SSTR wild-type or mutants and GloSensor plasmids. After 24 h of transfection, the cells were dissociated with TrypLE™ Express Enzyme (1X) (Thermo Fisher Scientific) and collected by centrifugation at 500 × g for 5 min. Then the collected cells were suspended in Hank’s balanced salt solution [HBSS (Thermo Fisher Scientific)] supplemented with […] (YEASEN), and then the suspension cells were seeded into 96-well plates with 90 μl/well. After incubating at room temperature for 40 min, 5 μM forskolin and ligands diluted in HBSS were added to each well and the plates were incubated at room temperature for 15 min. […] were measured using the Synergy H1 microplate reader (BioTek) and the data presented are means of at least three independent experiments.

[1] = cAMP inhibition, SSTR2 WT-1 (run 1)
[2] = cAMP inhibition, SSTR2 WT-2 (run 2)
[3] = cAMP inhibition, SSTR2 WT-3 (run 3)
[4] = SSTR2 WT-1, run 1 (WT of each mutant's set)
[5] = SSTR2 WT-2, run 2 (WT of each mutant's set)
[6] = SSTR2 WT-3, run 3 (WT of each mutant's set)

Chain of SSTR2 (P30874 whole entry): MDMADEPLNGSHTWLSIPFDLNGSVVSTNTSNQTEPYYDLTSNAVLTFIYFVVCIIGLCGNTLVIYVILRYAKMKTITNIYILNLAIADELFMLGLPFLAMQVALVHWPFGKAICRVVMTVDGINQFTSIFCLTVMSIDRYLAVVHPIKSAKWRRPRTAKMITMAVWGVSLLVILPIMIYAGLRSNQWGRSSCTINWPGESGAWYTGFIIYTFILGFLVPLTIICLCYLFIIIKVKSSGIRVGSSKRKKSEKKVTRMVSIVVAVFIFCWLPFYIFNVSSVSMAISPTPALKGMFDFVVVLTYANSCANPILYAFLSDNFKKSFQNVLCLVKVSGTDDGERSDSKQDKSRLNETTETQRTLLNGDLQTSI

C[C@@H](O)[C@@H]1NC(=O)[C@H](CCCCN)NC(=O)[C@@H](Cc2c[nH]c3ccccc23)NC(=O)[C@H](Cc2ccccc2)NC(=O)[C@@H](NC(=O)[C@H](N)Cc2ccccc2)CSSC[C@@H](C(=O)N[C@H](CO)[C@@H](C)O)NC1=O [octreotide]
Best-fit Top (WT-2 of K291A set): 102.4
Best-fit Bottom (WT-2 of L290A set): 5.269
Best-fit Span (WT-2 of L290A set): 95.18
Best-fit Top (WT-2 of L290A set): 100.5
Bottom (best-fit) (WT-2 of N276A set): 2.714
Span (best-fit) (WT-2 of N276A set): 101.1
Top (best-fit) (WT-2 of N276A set): 103.8
Bottom (best-fit) (WT-2 of P220A set): 2.714
Span (best-fit) (WT-2 of P220A set): 101.1
Top (best-fit) (WT-2 of P220A set): 103.8
Best-fit Bottom (WT-2 of S279A set): -6.301
Best-fit Span (WT-2 of S279A set): 114.5
Best-fit Top (WT-2 of S279A set): 108.2
Bottom (best-fit) (WT-2 of W269A set): -0.5171
Span (best-fit) (WT-2 of W269A set): 111.1
Top (best-fit) (WT-2 of W269A set): 110.6
Best-fit Bottom (WT-2 of Y302A set): -0.5171
Best-fit Span (WT-2 of Y302A set): 111.1
Best-fit Top (WT-2 of Y302A set): 110.6
Bottom (best-fit value) (WT-3, run 3, batch of I284A): 5.269
Span (best-fit value) (WT-3, run 3, batch of I284A): 95.18
Top (best-fit value) (WT-3, run 3, batch of I284A): 100.5
Bottom (best-fit value) (WT-3, run 3, batch of P286A): 0.3403
Span (best-fit value) (WT-3, run 3, batch of P286A): 101
Top (best-fit value) (WT-3, run 3, batch of P286A): 101.3
Bottom (best-fit value) (WT-3, run 3, batch of S285A): 0.3403
Span (best-fit value) (WT-3, run 3, batch of S285A): 101
Top (best-fit value) (WT-3, run 3, batch of S285A): 101.3
Bottom (best-fit value) (WT-3, run 3, batch of T194A): 9.705
Bottom (best-fit value) (WT-3, run 3, batch of T287A): 0.3403
Span (best-fit value) (WT-3, run 3, batch of T287A): 101
Top (best-fit value) (WT-3, run 3, batch of T287A): 101.3
Bottom (best-fit value) (WT-3, run 3, batch of W188A): 0.3403
Span (best-fit value) (WT-3, run 3, batch of W188A): 101
Top (best-fit value) (WT-3, run 3, batch of W188A): 101.3
Best-fit Bottom (WT-3 of D295A set): 5.262
Best-fit Span (WT-3 of D295A set): 106.6
Best-fit Top (WT-3 of D295A set): 111.9
Span (best-fit) (WT-3 of F208A set): 108.3
Bottom (best-fit) (WT-3 of F265A set): 9.705
Span (best-fit) (WT-3 of F265A set): 95.34
Top (best-fit) (WT-3 of F265A set): 105
Bottom (best-fit) (WT-3 of F272A set): 21.28
Span (best-fit) (WT-3 of F272A set): 73.55
Top (best-fit) (WT-3 of F272A set): 94.83
Best-fit Bottom (WT-3 of F294A set): -6.301
Best-fit Span (WT-3 of F294A set): 114.5
Best-fit Top (WT-3 of F294A set): 108.2
Best-fit Bottom (WT-3 of K291A set): 9.705
Best-fit Span (WT-3 of K291A set): 95.34
Best-fit Top (WT-3 of K291A set): 105
Best-fit Bottom (WT-3 of L290A set): 0.5044
Best-fit Span (WT-3 of L290A set): 101.8
Best-fit Top (WT-3 of L290A set): 102.3
Bottom (best-fit) (WT-3 of N276A set): 9.705
Span (best-fit) (WT-3 of N276A set): 95.34
Top (best-fit) (WT-3 of N276A set): 105
Bottom (best-fit) (WT-3 of P220A set): 9.705
Span (best-fit) (WT-3 of P220A set): 95.34
Top (best-fit) (WT-3 of P220A set): 105
Best-fit Bottom (WT-3 of S279A set): 5.269
Best-fit Span (WT-3 of S279A set): 95.18
Best-fit Top (WT-3 of S279A set): 100.5
Bottom (best-fit) (WT-3 of W269A set): 5.108
Span (best-fit) (WT-3 of W269A set): 89.16
Top (best-fit) (WT-3 of W269A set): 94.27
Best-fit Bottom (WT-3 of Y302A set): 5.269
Best-fit Span (WT-3 of Y302A set): 95.18
Best-fit Top (WT-3 of Y302A set): 100.5
Span (best-fit value) [1]: 89.16 and 95.18 and 102.3 and 73.55 and 108.3
Top (best-fit value) [1]: 94.27 and 100.5 and 105.4 and 94.83 and 106.4
Span (best-fit value) [2]: 114.5 and 95.18 and 103.8 and 101.1
Top (best-fit value) [2]: 108.2 and 100.5 and 107.6 and 103.8 and 95.77
Span (best-fit value) [3]: 114.5 and 89.16 and 108 and 95.34 and 149.7
Top (best-fit value) [3]: 108.2 and 94.27 and 109.2 and 105 and 143.2 and 106.4
Top (best-fit) (cAMP inhibition, SSTR2-WT, run 1): 101.1
Top (best-fit) (cAMP inhibition, SSTR2-WT, run 2): 101.1
Top (best-fit) (cAMP inhibition, SSTR2-WT, run 3): 96.66
Top (best-fit) (cAMP inhibition, SSTR2-WT, run 4): 105.3
Best-fit Top, cAMP inhibition [4]: 94.27 and 103.3 and 100.5 and 96 and 105 and 108.2
Span, cAMP inhibition [4]: 89.16 and 99.34 and 96.76 and 114.5
Best-fit Top, cAMP inhibition [5]: 103.8 and 107.6 and 101.1 and 105.4 and 106.4
Span, cAMP inhibition [5]: 101.1 and 103.8 and 99.15 and 102.3 and 108.3
Best-fit Top, cAMP inhibition [6]: 103.8 and 101.3 and 105 and 107.6 and 103.3
Span, cAMP inhibition [6]: 101.1 and 101 and 103.8 and 99.34
